The values that follow come from patent US20230173029A1, “TREATMENT OF CARDIAC REMODELLING” (UNIVERSITETET I OSLO, priority 2020, published 2023).

The assay deals with SMAD2. Briefly: Western blot of nuclear phosphorylated SMAD2 in left ventricle tissue. The following applies: HT Dahl/SS rats, 50 or 100 ng/kg/day s.c. (pooled), FIG. 2E. The class given is in vivo, rat. The protocol: A total of 29 adult Dahl salt-sensitive (Dahl/SS) male rats with an initial weight of 150 to 200 g were included in the study. Rats were purchased from Charles River Laboratories (USA) and housed in a room with a 12/12-hour light cycle, a temperature of 21° C., and a humidity of 55%. Rats were maintained on a normal salt diet up to seven weeks of age. Twenty-two Dahl/SS were then randomly switched to a high salt diet for 6 weeks to induce hypertension, whilst 7 rats were kept normotensive (NT) on normal salt diet. Drinking water and food was provided ad libitum.
After 2 weeks of high salt diet, 15 hypertensive (HT) rats were started on treatment with proANP31-67. […]
Enriched nuclear protein fraction from left ventricle tissue was isolated using Compartment Protein Extraction Kit (Merck Millipore, Cat. #2145), according to the manufacturer's specifications. Protein concentration was measured by BCA assay kit (Thermo Fisher Scientific, Cat. #23225). […] Membranes were analysed with rabbit anti-SMAD2/3 (1:1000, Cell Signaling Technology, Cat. #8685) and rabbit anti-phospho-SMAD2 (Ser465/467) (1:500, Cell Signaling Technology, Cat. #3108). The membranes were developed using the ECL system (Pierce Protein Research Products) and ChemiDoc XRS (Bio-Rad), and quantified using Image Lab™ software (version 6.0.1, Bio-Rad).

On to “proANP31-67: Human proANP31-67, linear peptide fragment of proANP consisting of SEQ ID NO: 1; also known as vessel dilator, VSDL (EVVPPQVLSEPNEEAGAALSPLPEVPPWTGEVSPAQR; listed as Homo sapiens)”, for which the “SMAD2 phosphorylation (nuclear) compared to untreated HT rats” value is given as “significantly lower”.
